One assay concerns Wild type C57BL/6J mice. Briefly: VEGFA ELISA of RPE-choroid after laser injury. Format: in vivo, mouse. The following applies: FTOi i.p. plus 25 ng intravitreous, day 3 after laser injury. As for the experimental part:
Laser photocoagulation (532 nm, 180 mW, 100 ms, 75 μm) (OcuLight GL; IRIDEX Corp., Mountain View, CA, USA) was performed bilaterally (volume studies: 4 spots per eye; RNA analyses: 10 spots per eye) in 6- to 8-week-old mice on day 0 to induce CNV as previously described 1-3. For drug treatment, the mice pretreated with FTO inhibitor (FB23-2, SML2694, Sigma) or vehicle (DMSO) through intraperitoneal injection (i.p, 2 mg/kg). Then, the mice were subjected to laser photocoagulation followed by intravitreous injection of the FTO inhibitor (25 ng/0.5 μl per eye) or vehicle. At day 3 after laser injury, the mice were administered the FTO inhibitor (2 mg/kg) or vehicle via intraperitoneal injection. At day 7, the eyes were collected for fluorescein labeled-isolectin B4 and F4/80 staining and for neovascular volume quantification.
The RPE-choroid complex was isolated from mouse eyes on day 3 after laser injury and treatment with FTO inhibitor or vehicle. […] The lysate was centrifuged at 20,000×g for 15 minutes at 4° C., and total protein in the lysates was quantified using the Thermo Scientific™ Pierce™ BCA™ Protein Assay (Fisher Scientific, PI23225, USA). VEGFA protein levels in the supernatants were measured by VEGF DuoSet ELISA (R&D Systems, DY493, USA), following the manufacturer's instructions. […]
(ELISA stands for enzyme-linked immunosorbent assay.)

A further assay has as its system Vegfa mRNA. In words: MeRIP-qPCR of m6A methylated Vegfa mRNA in BMDMs. Format: cell-based, mouse. Particulars: BMDMs treated with FTOi vs DMSO, MeRIP and qPCR. Here is the method: To validate m6A methylation of Vegfa mRNA and perturbations induced by FTOi treatment, we performed MeRIP-qPCR by following the EpiMark® N6-Methyladenosine Enrichment Kit protocol (New England Biolabs, E1610S, USA). Briefly, total RNA was extracted from mouse BMDMs treated with 5 μM of FTO inhibitor or vehicle for 24 hours by using TRIzol™ Reagent (Thermo Fisher Scientific, 15596018, USA). 100 μg of total RNA from each group was mixed with unmodified RNA (Negative control, NC). Next, 20 μg of these mixtures was incubated with m6A antibody (Cell Signaling Technology, D9D9W, USA) and then pulled down using Pierce™ Protein A/G Magnetic Beads (Thermo Fisher Scientific, 88802, USA) overnight. The enriched m6A positive RNAs were then eluted and purified by NucleoSpin RNA Clean-Up (Macherey-Nagel, 740948.25, USA), and the amounts of m6A-modified Vegfa mRNA or negative control RNAs were determined by reverse transcription and qPCR.

On to `Cc1noc(C)c1-c1cc(Cl)c(Nc2ccccc2C(=O)NO)c(Cl)c1` [FB23-2], for which the “VEGFA protein levels in laser treated RPE-choroid tissue” value in the assay on Wild type C57BL/6J mice is “inhibits VEGFA release in vivo”; in the assay with Wild type C57BL/6J mice (listed as selective inhibitor) it was “suppressed VEGFA protein levels”. Also, the “Level of m6A methylated Vegfa mRNA” value with Vegfa mRNA was “increase the level of methylated (m6A) VEGFA mRNA”; in the assay with Vegfa mRNA (listed as FTO inhibitor), “significantly increased the abundance of m6A methylated Vegfa mRNA”.
